Reference: patent EP0414913A1, “p-AMINOPHENOL DERIVATIVE AND PRODUCTION AND APPLICATION THEREOF” (OTSUKA PHARMACEUTICAL FACTORY, INC., priority 1989, dated 1990)

These molecules were tested on male Wistar rats (assay: Antiinflammatory activity by air pouch technique (croton oil)). Conditions: Rattus norvegicus, 192 h, 25 mg/kg/day into the pouch in 5% gum arabic, once a day for 6 days, amount of exudate on day 8 vs control group, ** p<0.01, * p<0.05, read-out: Antiinflammatory rate (%).
Format: in vivo
Procedure: The antiinflammatory activity of the compound of the invention was determined by an air pouch technique generally comforming to the method described in the literature [Proc. Soc. Exp. Biol. Med., 82 , 328-333, 1953].
The test was carried out using male Wistar rats (average body weight 200 g, 7 animals per group). A thick paper sheet with an oval cutout (2 x 5 cm) was attached to the clipped back of the animal under pentobarbital anesthesia. The skin was picked up through the central cutout and 10 ml of air was injected subcutaneously to prepare an air pouch. Then, 1 ml of 2% croton oil, as a phlogogenic agent, was injected into the pouch. The paper sheet was removed and the animal was gently rotated in order that the croton oil would be thoroughly contacted with the inner wall of the pouch.
The test compound suspended in 5% gum arabic was administered into the pouch (25 mg/kg/day) once a day for 6 days beginning the day after preparation of the pouch. The group of animals subjected to the above treatment was designated as the experimental group.
On day 8, the animals were bled to death and the amount (ml) of exudate in the pouch was measured. The antiinflammatory rate was calculated with the result in the control group ( a group not receiving the test compound) as a reference according to the following equation. [formula]

Structure (SMILES)	inhibition in vivo at 25 mg/kg/day
CC(C)(C)c1cc(Nc2cnccn2)cc(C(C)(C)CO)c1O [Compound 1, 2-(1,1-dimethylethyl)-6-(1,1-dimethyl-2-hydroxyethyl)-4-pyrazinylaminophenol]	68%
CC(C)(C)c1cc(Nc2nccs2)cc(C(C)(C)CO)c1O [Compound 3, 2-(1,1-Dimethylethyl)-6-(1,1-dimethyl-2-hydroxyethyl)-4-[N-(2-thiazolyl)amino]phenol]	71%
CC(C)(C)c1cc(Nc2ccccc2)cc(C(C)(C)CO)c1O [Compound 6]	14%
CC(C)(C)c1cc(Nc2cccnc2)cc(C(C)(C)CO)c1O [Compound 8]	19%
CC(C)(C)c1cc(Nc2ncccn2)cc(C(C)(C)CO)c1O [Compound 10]	24%
CC(C)(C)c1cc(Nc2nccnn2)cc(C(C)(C)CO)c1O [Compound 11]	20%
CC(=O)OCC(C)(C)c1cc(Nc2nccs2)cc(C(C)(C)C)c1O [Compound 13, 2-(2-acetoxy-1,1-dimethylethyl)-6-(1,1-dimethylethyl)-4-(2-thiazolylamino)phenol]	60%
CC(=O)OCC(C)(C)c1cc(N(C(C)=O)c2nccs2)cc(C(C)(C)C)c1O [Compound 14, 2-(2-acetoxy-1,1-dimethylethyl)-6-(1,1-dimethylethyl)-4-[N-acetyl-N-(2-thiazolyl)amino]phenol]	51%
CC(C)(C)c1cc(Nc2nc(CC(=O)O)cs2)cc(C(C)(C)CO)c1O [Compound 15, 2-[3-(1,1-dimethylethyl)-5-(1,1-dimethyl-2-hydroxyethyl)-4-hydroxyphenylamino]-4-thiazolylacetic acid]	32%
